Serum sodium levels data for 1 compound are collected here from US20260053811A1, “METHODS OF TREATING HYPERTENSION IN OBESE SUBJECTS” (Mineralys Therapeutics, Inc., priority 2022, published 2026).

This series has as its system hypertensive subjects. Put plainly: Serum sodium. Conditions: active treatment cohorts; Parts 1 and 2. It counts as in vivo, human.

As for `CC(=O)N[C@H]1CC[C@H](NC(=O)CN2CCN(c3nncc(-c4ccc(C)cc4)n3)CC2)CC1` [Compound A HBr], the Serum sodium levels result is given as “decreased”.
